Test results: patent US7829298B2, “Human G protein-coupled receptors for metabolic-related disorders” (Arena Pharmaceuticals, Inc., priority 2001, dated 2010)
“Also recorded” adds a separate entry of the source. Where two headings read alike, the source gives them in different places.

What was measured:
[1] = target: T1, hRUP38 (Homo sapiens, UniProt P49019); assay: Inhibition of forskolin stimulated cAMP in stable CHO cells (adenylyl cyclase assay); assay type: cell-based
T1 construct: The full length hRUP38 was cloned by PCR using hRUP38 specific primers; expressed in transfected cells
From the text: (§1) A Flash Plate™ Adenylyl Cyclase kit (New England Nuclear; Cat. No. SMP004A) designed for cell-based assays can be modified for use with crude plasma membranes. The Flash Plate wells can contain a scintillant coating which also contains a specific antibody recognizing cAMP. The cAMP generated in the wells can be quantitated by a direct competition for binding of radioactive cAMP tracer to the cAMP antibody. The following serves as a brief protocol for the measurement of changes in cAMP levels in whole cells that express the receptors.
(§2) Media is carefully aspirated off and discarded. 10 ml of PBS is gently added to each dish of cells followed by careful aspiration. 1 ml of Sigma cell dissociation buffer and 3 ml of PBS are added to each plate. Cells were pipetted off the plate and the cell suspension was collected into a 50 ml conical centrifuge tube. Cells were then centrifuged at room temperature at 1,100 rpm for 5 min. The cell pellet was carefully re-suspended into an appropriate volume of PBS (about 3 ml/plate). The cells were then counted using a hemocytometer and additional PBS was added to give the appropriate number of cells (with a final volume of about 50 μl/well).
The cells were then added to the wells and incubated for 60 min at room temperature. 100 μl of Detection Mix containing tracer cAMP was then added to the wells. Plates were then incubated additional 2 hours followed by counting in a Wallac MicroBeta scintillation counter. Values of cAMP/well were then extrapolated from a standard cAMP curve which was contained within each assay plate.

[2] = target: hRUP25 (Homo sapiens, UniProt Q8TDS4); assay: Inhibition of forskolin stimulated cAMP accumulation in stable CHO cells (adenylyl cyclase assay); assay type: cell-based; conditions: for inhibition of forskolin stimulated cAMP / agonist or not (in words): CHO cells expressing hRUP25
[3] = tested on: adipocyte primary cultures derived from human subcutaneous fat; assay: Isoproterenol induced lipolysis in human primary adipocytes; assay type: cell-based; conditions: for EC50: read-out: EC50, inhibition of isoproterenol induced lipolysis
From the text: Lipolysis assays were done following the isolation of adipocytes from rat or human. The source of fat from rats was the epididymal fat and from humans was either subcutaneous or omental. Cells were isolated following collagenase digestion and floatation. An elevation of intracellular cAMP levels and concomitant activation of lipolysis via hormone sensitive lipase was accomplished using isoproterenol, forskolin, 3-isobutyl-1-methyl-xanthine (IBMX) or a combination thereof at concentrations and times determined empirically and depending on the source of tissue. […] Data was analyzed using Excel and PrismGraph.

[4] = target: T2, hRUP19 (Homo sapiens, UniProt Q9BXC0); assay: Inhibition of forskolin stimulated cAMP in stable CHO cells (adenylyl cyclase assay); assay type: cell-based; set-up: The full length hRUP19 was cloned by PCR using primers; expressed in transfected cells; conditions: CHO cells expressing hRUP19
From the text: as §1
as §2, with “μl/well). […]” for “μl/well).”

[5] = target: T2, hRUP19; conditions: HEK293 cells transfected with GqΔGi plus hRUP19
[6] = tested on: rat epididymal fat derived adipocytes; conditions: concentration of 10 μM
[7] = tested on: male Sprague Dawley rats; conditions: for plasma free fatty acids (FFA) level (in words): fasted rats, IP injection, 15 mg/kg, 30 mg/kg or 45 mg/kg, time course

T1 sequence (P49019 whole entry K94N/T173P/F198L/H253R/I317M/I346M): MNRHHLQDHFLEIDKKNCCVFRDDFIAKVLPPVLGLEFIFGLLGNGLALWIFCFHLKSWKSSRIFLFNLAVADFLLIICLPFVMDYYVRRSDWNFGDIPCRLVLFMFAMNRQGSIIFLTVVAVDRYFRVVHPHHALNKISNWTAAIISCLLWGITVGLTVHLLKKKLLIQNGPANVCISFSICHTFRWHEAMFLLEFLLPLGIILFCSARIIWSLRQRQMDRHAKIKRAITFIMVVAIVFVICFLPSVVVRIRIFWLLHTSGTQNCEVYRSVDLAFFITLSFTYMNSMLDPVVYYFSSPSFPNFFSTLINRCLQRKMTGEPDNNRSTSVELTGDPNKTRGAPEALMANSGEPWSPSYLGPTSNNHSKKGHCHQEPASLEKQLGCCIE
hRUP25, sequence (Q8TDS4 whole entry): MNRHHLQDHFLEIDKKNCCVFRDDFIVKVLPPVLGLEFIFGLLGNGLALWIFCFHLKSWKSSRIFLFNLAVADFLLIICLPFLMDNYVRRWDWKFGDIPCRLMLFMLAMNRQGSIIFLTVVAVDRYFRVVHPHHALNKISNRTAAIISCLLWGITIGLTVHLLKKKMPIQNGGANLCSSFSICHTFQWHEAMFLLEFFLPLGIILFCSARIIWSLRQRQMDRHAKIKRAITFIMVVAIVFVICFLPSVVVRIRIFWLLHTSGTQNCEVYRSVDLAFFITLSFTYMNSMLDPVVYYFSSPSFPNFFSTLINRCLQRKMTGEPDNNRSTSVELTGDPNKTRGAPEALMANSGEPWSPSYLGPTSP
T2 sequence (Q9BXC0 whole entry): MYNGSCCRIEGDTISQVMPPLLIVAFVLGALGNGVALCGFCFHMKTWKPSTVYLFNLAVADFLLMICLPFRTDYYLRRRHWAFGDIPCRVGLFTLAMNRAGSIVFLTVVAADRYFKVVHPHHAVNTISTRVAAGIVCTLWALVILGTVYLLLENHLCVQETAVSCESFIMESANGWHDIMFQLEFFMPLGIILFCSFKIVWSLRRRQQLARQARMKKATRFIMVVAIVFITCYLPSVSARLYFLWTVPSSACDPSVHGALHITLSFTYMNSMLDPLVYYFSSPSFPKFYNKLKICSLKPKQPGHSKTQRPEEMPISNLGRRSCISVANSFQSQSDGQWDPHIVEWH

CC(C)n1nnc2cc(C(=O)O)ccc21 [1-Isopropyl-1H-benzotriazole-5-carboxylic acid]
inhibition of forskolin stimulated cAMP / agonist or not (in words) ([1]; hRUP38-expressing CHO cells): does and agonist for hRUP38
inhibition of forskolin stimulated cAMP / agonist or not (in words) [2]: no effect
inhibition of isoproterenol stimulated lipolysis (in words) ([3]; isoproterenol 100 nM, primary human adipocytes): dose-dependant manner comparable to that of nicotinic acid; also recorded: dose-dependent manner comparable to that of nicotinic acid; also recorded: inhibit lipolysis
inhibition of forskolin stimulated cAMP / agonist or not (in words) [4]: no effect

CCOc1ccc(Br)cc1C=CC(=O)O [3-(5-Bromo-2-ethoxy-phenyl)-acrylic acid]
EC50 ([1]; hRUP38-expressing CHO cells): 1.17 µM
inhibition of forskolin stimulated cAMP / agonist or not (in words) ([1]; hRUP38-expressing CHO cells): activates inhibition of forskolin stimulated cAMP; also recorded: agonist for RUP38
inhibition of forskolin stimulated cAMP / agonist or not (in words) [2]: no effect
inhibition of forskolin stimulated cAMP / agonist or not (in words) [4]: no effect

CCCc1nn(C)c(O)c1C(=O)c1cccnc1 [(5-Hydroxy-1-methyl-3-propyl-1H-pyrazol-4-yl)-pyridin-3-yl-methanone]
inhibition of forskolin stimulated cAMP / agonist or not (in words) ([1]; hRUP38-expressing CHO cells): not for RUP38
activity on hRUP38-expressing CHO cells (in words) ([1]; up to a concentration of at least 100 μM (not shown)): no activity
inhibition of forskolin stimulated cAMP / agonist or not (in words) [2]: activates inhibition of forskolin stimulated cAMP
inhibition of forskolin stimulated cAMP / agonist or not (in words) ([2]; listed as (5-Hydroxy-1-methyl-3-propyl-1H-pyrazol-4-yl)-pyridin-3-yl-methanone): agonist for RUP25
EC50 ([2]; hRUP25-expressing CHO cells (stable line #46 in FIG. 18B), read-out: EC50, inhibition of forskolin stimulated cAMP accumulation): 0.352 µM

CN1CCC[C@H]1c1cccnc1 [(−)-nicotine, (−)-NICOTINE, reference compound]
EC50 [2]: 9.8 µM
inhibition of forskolin stimulated cAMP / agonist or not (in words) [2]: agonist for RUP25

c1cncc(-c2nn[nH]n2)c1 [P-3-T, 3-tetrazole-5-pyridine, reference compound]
EC50 ([3]; adipocyte primary cultures derived from human subcutaneous fat): 0.218 µM

O=C(O)c1cccnc1 [nicotinic acid, Nicotinic acid]
inhibition of isoproterenol stimulated lipolysis (in words) [3]: inhibit lipolysis
EC50 ([3]; Homo sapiens, Adipocyte): 0.716 µM
inositol phosphates (IPs) accumulation / agonist or not (in words) [5]: unresponsive
inositol phosphates (IPs) accumulation / agonist or not (in words) ([5]; listed as Nicotinic acid): not for RUP38 or RUP19
inhibition of isoproterenol induced lipolysis (in words) [6]: inhibiting isoproterenol induced lipolysis
plasma FFA versus vehicle control after inhibition, rebound (in words) ([7]; 45 mg/kg IP, at 3 hr): rebound effect
plasma free fatty acids (FFA) level (in words) [7]: lower plasma free fatty acids
plasma free fatty acids (FFA) level (in words) ([7]; listed as niacin): significantly decrease
